# Several values for one entry are separate records, joined by “and”; a condition that tells them apart may be missing. Equal entries are not always repeated. Where two headings read alike, the source gives them in different places.
# What was measured:
# [1] = test system: Pseudomonas putida DOT-T1E; experiment: Halo-inhibition test with antibiotic disks on minimal medium; type: cell-based; conditions: wild-type; Halo-inhibition test
# [2] = test system: P. mendocina KR1-A (#362); type: cell-based, Pseudomonas mendocina; conditions: gradient 0-100 mg/L, repeated lines
# [3] = test system: P. mendocina krc16DkpobA51a (#303); type: cell-based, Pseudomonas mendocina; conditions: gradient 0-100 mg/L, repeated lines
# [4] = test system: Pseudomonas aeruginosa; type: cell-based; conditions: gradient of PHBA between 0 and 30 g/L
# [5] = test system: Enriched cultures; experiment: Selection on TSA plates with toluene and pHBA; type: cell-based; conditions: dodecane:toluene overlay (100 ppm toluene)
# Protocol: Five transfers were made on glass plates with trypticase soy agar (TSA-Difco) medium with 10 g/L glucose. Toluene (˜0.5 mL) was added to the bottom of the inverted plates, saturating the medium and the gas phase. […]. This mixture was calculated to give 100 ppm toluene concentration in the liquid phase. […]
# [6] = test system: P. mendocina KR1 with pPAT7; conditions: gradient 0-20 g/L
# [7] = test system: strain C; experiment: Selection on TSA plates with toluene and pHBA; type: cell-based; conditions: 100 ppm toluene
# Protocol: (§1) Three more transfers were made in a TSA medium plus 10 g/L glucose, 100 mg/L cycloheximide, 5 g/L agar (Difco), and increasing concentrations of pHBA. The pH was adjusted to 7.2. Toluene to 100 ppm was added to the bottom of the glass desicator as a mixture of hexadecane:toluene (262 mL:26.5 mL). This mixture was expected to give 100 ppm toluene in the liquid phase in equilibrium. Selected strains C and F (DGL#325) grew on 40 g/L pHBA after few day of incubation, strain C grew at 50 g/l pHBA after 10 days of incubation. Under microscope strain C grew in long chains.
# [8] = test system: Pseudomonas putida EEZ10; type: cell-based; conditions: gradient of PHBA between 0 and 30 g/L
# [9] = test system: Ralstonia solanacearum; type: cell-based; conditions: gradient of PHBA between 0 and 30 g/L
# [10] = test system: Escherichia coli ET8000; type: cell-based; conditions: gradient of PHBA between 0 and 30 g/L
# [11] = test system: Alcaligenes eutrophus; type: cell-based; conditions: gradient of PHBA between 0 and 30 g/L
# [12] = test system: P. putida KT2440 with pPAT7; conditions: gradient 0-20 g/L
# [13] = test system: Pseudomonas putida DOT-T1E; experiment: pHBA shock after preculture on pHBA, 1 or 10 mM MgSO4; type: cell-based
# [14] = test system: Bacillus subtilis; type: cell-based; conditions: gradient of PHBA between 0 and 30 g/L
# [15] = test system: P. mendocina KR1; conditions: P. mendocina KR1, plasmid none, gradient 0-20 g/L
# [16] = test system: Pseudomonas putida DOT-T1E; experiment: Growth in M9 liquid medium with glucose and p-hydroxybenzoate; type: cell-based; conditions: M9 with glucose
# [17] = test system: P. putida KT2440 with pPAT8; conditions: gradient 0-20 g/L
# [18] = test system: P. putida PhoA5 with pPAT8; conditions: gradient 0-20 g/L
# [19] = test system: Pseudomonas stutzeri; type: cell-based; conditions: gradient of PHBA between 0 and 30 g/L
# [20] = test system: Acinetobacter calcoaceticus; type: cell-based; conditions: gradient of PHBA between 0 and 30 g/L
# [21] = test system: E. coli K12 (#327); conditions: gradient 0 to 40 g/L, 24 h, 30° C.
# [22] = test system: P. mendocina KR1 with pPAT8; conditions: gradient 0-20 g/L
# [23] = test system: Pseudomonas vesicularis; type: cell-based; conditions: gradient of PHBA between 0 and 30 g/L
# [24] = test system: P. putida KT2440; conditions: P. putida KT2440, plasmid none; gradient 0-20 g/L
# [25] = test system: Pseudomonas fluorescens; type: cell-based; conditions: gradient of PHBA between 0 and 30 g/L
# [26] = test system: Pseudomonas putida R1; type: cell-based; conditions: gradient of PHBA between 0 and 30 g/L
# [27] = test system: P. mendocina KR1 (#363); experiment: Growth on pHBA gradient plates; conditions: gradient 0 to 40 g/L, 24 h, 30° C.
# [28] = test system: P. mendocina krc16DkpobA51a (#303); conditions: gradient 0 to 40 g/L, 24 h, 30° C.
# [29] = test system: strain F (DGL#325); experiment: Selection on TSA plates with toluene and pHBA; type: cell-based, Pseudomonas mendocina; conditions: 100 ppm toluene, after few day of incubation
# Protocol: as §1, with “[…].” for “Selected strains C and F (DGL#325) grew on 40 g/L pHBA after few day of incubation, strain C grew at 50 g/l pHBA after 10 days of incubation.”
# [30] = test system: PhoA5 mutant; experiment: Survival after sudden pHBA shock with or without Fe-citrate; type: cell-based, Pseudomonas putida
compound,measurement,setting,value
"O=C(N[C@H](CO)[C@H](O)c1ccc([N+](=O)[O-])cc1)C(Cl)Cl [CAM, chloramphenicol]",tolerance/sensitivity to antibiotic,[1],tolerant
same,Growth (distance in mm) on CAM gradient,[2],15 mm and 10 mm
same,Growth (distance in mm) on CAM gradient,[3],10 mm and 15 mm
"O=C(O)c1ccc(O)cc1 [pHBA, p-hydroxybenzoic acid]",pHBA tolerance or sensitivity,[4],sensitive
same,pHBA concentration at which cultures grew,[5],20 g/L
same,pHBA Tolerance,[6],~10 g/L
same,pHBA concentration at which strain grew,[7]; after 10 days of incubation,50 g/l
same,pHBA concentration at which strain grew,[7]; after few day of incubation,40 g/L
same,pHBA tolerance or sensitivity,[8],tolerant
same,pHBA tolerance or sensitivity,[9],sensitive
same,pHBA tolerance or sensitivity,[10],tolerant
same,pHBA tolerance or sensitivity,[11],sensitive
same,pHBA Tolerance,[12],17 g/L
same,cell viability after pHBA shock,"[13]; cells not pregrown on pHBA, 30 and 36 g/L, 24 h after the shock",no cells were recovered
same,cell viability after pHBA shock,"[13]; cells not pregrown on pHBA, >18 g/L, 1 or 10 mM MgSO4",marked decrease in cell viability
same,cell viability after pHBA shock,"[13]; preinduced cells, 30 and 36 g/L pHBA, 1 mM MgSO4, 24 h after the shock",cells were not recoverable
same,decrease in number of viable cells after pHBA shock,"[13]; preinduced cells, 30 g/L, 10 mM MgSO4, growth resumed afterwards",~6 orders of magnitude
same,cell viability after pHBA shock,"[13]; preinduced cells, up to 0.18 g/L PHBA, regardless of MgSO4",no significant effect on cell viability
same,pHBA tolerance or sensitivity,[14],sensitive
same,pHBA Tolerance,[15],8.5 g/L
same,pHBA Tolerance,[15]; listed as PHBA,about 8.5 g/L
same,growth (CFU per mL),[16]; 6 g/L of p-hydroxybenzoate,growth was exponential
same,growth (CFU per mL),[16]; 12 or higher g/L p-hydroxybenzoate,number of viable cells decreased
same,pHBA Tolerance,[17],18.5 g/L
same,pHBA Tolerance,[18],17 g/L
same,pHBA tolerance or sensitivity,[19],sensitive
same,pHBA tolerance or sensitivity,[20],tolerant
same,growth on pHBA gradient plates,[21],35 mm and 20 mm
same,pHBA Tolerance,[22],10.2 g/L
same,pHBA Tolerance,[22]; listed as PHBA,~10 g/L
same,pHBA tolerance or sensitivity,[23],sensitive
same,pHBA Tolerance,[24],17 g/L
same,pHBA tolerance or sensitivity,[25],sensitive
same,pHBA tolerance or sensitivity,[26],tolerant
same,growth on pHBA gradient plates,[27],10 mm and 20 mm
same,growth on pHBA gradient plates,[28],10 mm and 15 mm
same,pHBA concentration at which strain grew,[29],40 g/L
same,survival after pHBA shock,"[30]; 12 g/L PHBA, absence of iron",about 0.0001%
same,survival after pHBA shock,"[30]; 12 g/L PHBA, with extra iron (Fe-citrate)",~100%
same,survival after pHBA shock,"[30]; 18 g/L, absence of iron",no cells survived
same,survival after pHBA shock,"[30]; 18 g/L, supplemented with iron",0.001%
